Assay results: paper PMC10671498, “Antiproliferative and Cytotoxic Properties of Propynoyl Betulin Derivatives against Human Ovarian Cancer Cells: In Vitro Studies” (International Journal of Molecular Sciences, 2023)
pIC50: −log10 of the molar value.

What was measured:
CCRF/CEM cells = system: CCRF/CEM cells; set-up: method as in PMID 30947097; conditions: cited from earlier work
SK-OV-3 cells [1] = experiment: SRB cell proliferation assay, SK-OV-3; format: cell-based, human; conditions: for pIC50: Homo sapiens
Protocol: This study used ovarian cancer cell lines, which are part of the panel of cell lines used as part of the NCI-60 Human Cell Lines Screen program, characterized by overexpression of the c-erbB2/neu (HER2) receptor [62, 63]. The human ovarian cancer cell lines (SK-OV-3 and OVCAR-3) were purchased from the American Type Culture Collection (ATCC®, Manassas, Virginia, USA). SK-OV-3 cells (ATCC No. HTB-77™) were cultured in McCoy’s 5A medium containing D-glucose (3 g/L), L-glutamine (0.219 g/L), and sodium bicarbonate (2.2 g/L) supplemented with 10% fetal bovine serum, 10 mM HEPES (pH 7.3–7.5), 100 U/mL penicillin, and 100 μg/mL streptomycin (all from Sigma Aldrich).
(§1) Betulin 1 and its derivatives were dissolved in dimethyl sulfoxide (DMSO; Sigma Aldrich) as a 15 mM stock solution. Working solutions were prepared through the dilution of stock solutions with culture medium. The final DMSO concentration in culture media was adjusted to 0.2%. The effect of tested compounds on the proliferation of SK-OV-3 and OVCAR-3 cells was measured using the In Vitro Toxicology Assay Kit, Sulforhodamine B based (Sigma Aldrich). Cells were seeded in 96-well plates (Greiner Bio-One, Kremsmünster, Austria) at an initial density of 3 × 10^3 cells per well in 200 µL of culture medium. After 24 h of incubation, betulin 1 and its derivatives at a concentration range of 0.1 μM to 30 μM were added to the wells. Control cultures were treated with vehicle alone (0.2% DMSO). The incubation periods for cells with test compounds were 1 day, 3 days, and 5 days. After appropriate incubation periods, culture media were removed, and cells were fixed in 10% trichloroacetic acid solution for 60 min at 4 °C. After fixation, the TCA solution was removed, and the plates were washed three times with deionized water (300 μL/well) and dried. At the next step, cells were stained with 0.4% sulforhodamine B for 30 min. The excess dye was removed by washing three times with 1% (vol/vol) acetic acid. The protein-bound dye was dissolved in 200 μL 10 mM Tris base solution. Absorbance was measured at 570 nm and 690 nm (reference wavelength) using the MRX Revelation plate reader (Dynex Technologies, Chantilly, VA, USA).
(§2) GraphPad Prism 10.0.2 (GraphPad Software Inc., San Diego, CA, USA) software was used for calculations and the statistical analysis of the IC50 values (Table 1). IC50 was determined by using the “nonlinear regression” mode, and the “log(inhibitor) vs. normalised response—Variable slope” equation was chosen in GraphPad Prism software for calculations. The obtained data were normalized to run from 100% down to 0%, and logarithms of concentration were used. Graphs (Figure 2, Figure 3, Figure 4, Figure 5 and Figure 8, and Supplementary Figure S1) were also prepared using this software. In the case of the lack of normal distribution or homogeneity of variances, the remaining results were analyzed using a non-parametric Kruskal–Wallis test with multiple comparisons. Post hoc analysis was performed with the non-parametric equivalent of Tukey’s test. A p value of <0.05 was considered statistically significant. Otherwise, a one-way ANOVA followed by a Tukey’s post hoc test was applied. t-tests was used to perform pairwise comparisons between group means. Analysis was performed using Statistica 13.1 software (StatSoft, Tulsa, OK, USA).

OVCAR-3 cells [2] = experiment: SRB cell proliferation assay, OVCAR-3; format: cell-based, human; conditions: for pIC50: Homo sapiens
Protocol: OVCAR-3 cells (ATCC No. HTB-161™) were cultured in RPMI-1640 medium containing HEPES buffer (2.383 g/L), sodium bicarbonate (1.5 g/L), sodium pyruvate (0.11 g/L) supplemented with 20% fetal bovine serum, 10 µg/mL bovine insulin, 100 U/mL penicillin, and 100 μg/mL streptomycin (all from Sigma Aldrich).
as §1, §2

P388 cells = system: P388 cells; set-up: method as in PMID 30947097; conditions: cited from earlier work
A549 cells = system: A549 cells; set-up: method as in PMID 30947097; conditions: cited from earlier work
MV-4-11 cells = system: MV-4-11 cells; set-up: method as in PMID 30947097; conditions: cited from earlier work
Hs294T cells = system: Hs294T cells; set-up: method as in PMID 30947097; conditions: cited from earlier work
[3] = system: 18Co normal myofibroblasts; experiment: SRB cell proliferation assay, 18Co normal myofibroblasts; format: cell-based
Protocol: Next, 18Co cells (ATCC No. CRL-1459™) were cultured in MEM medium containing HEPES buffer, 10% fetal bovine serum, 100 U/mL penicillin, and 100 μg/mL streptomycin (all from Sigma Aldrich).
as §1, §2

SK-OV-3 cells [4] = experiment: LDH release assay, SK-OV-3; format: cell-based, human; conditions: SK-OV-3, 24 h, all concentrations (3, 10, 30 μM)
Protocol: (§3) In order to evaluate the cytotoxic effect, the release of LDH into the culture medium using the In Vitro Toxicology Assay Kit, Lactic Dehydrogenase Based (TOX7; Sigma Aldrich) was assessed. SK-OV-3 and OVCAR-3 cells were plated and cultured in 96-well plates (Greiner Bio-One) at the initial density of 5 × 10^3 cells per well in 100 µL of culture medium. The density of the cells was determined in the same manner as in the SRB assay. After 24 h, the media were replaced with the working solutions, which contained appropriate test compounds at concentrations of 3 μM, 10 μM, 30 μM, and control medium (0.2% DMSO). Cells were exposed to the test substances for 24 h. The background control comprised wells without cells with only control medium. To determine the maximal LDH release (high control), half of the control cultures were treated with lysis buffer. Wells with untreated cells were used as the low control of the assay. LDH activity in media was assessed according to the manufacturer’s protocol. The absorbance was measured at wavelengths of 490 nm and 690 nm (background), and the percentage of released enzyme was calculated for cells growing in the presence of compounds according to the formula:Cytotoxicity [%] = [(AT − AL)/(AH − AL)] × 100 where AT is the absorbance of treated wells; AL is low control; and AH is high control (maximal LDH release).
(§4) Cytotoxicity was expressed as a percentage of the released LDH calculated according to the difference between the absorbance of the treated and low control wells divided by the difference between the absorbance of the high control and low control wells.

DU145 cells = system: DU145 cells; set-up: method as in PMID 30947097; conditions: cited from earlier work
OVCAR-3 cells [5] = experiment: LDH release assay, OVCAR-3; format: cell-based, human; conditions: OVCAR-3, 24 h, all concentrations (3, 10, 30 μM)
Protocol: as §3, §4

Compound: C#CC(=O)OC[C@]12CC[C@@H](C(=C)C)C1C1CCC3[C@@]4(C)CC[C@H](OP(=O)(OCC)OCC)C(C)(C)C4CC[C@@]3(C)[C@]1(C)CC2 (stereo partly shown) [Compound 3, 3-O-diethoxyphosphorylbetulin-28-O-propynoylbetulin]
- tumor growth inhibition (CCRF/CEM cells): Significant tumor growth inhibition
- pIC50 (SK-OV-3 cells [1]; SK-OV-3, 72 h): 6.54
- pIC50 (SK-OV-3 cells [1]; SK-OV-3, 120 h): 6.47
- concentration at which antiproliferative activity (decrease in the number of cells) was evident (SK-OV-3 cells [1]; SK-OV-3, SRB assay, 0.1–30 µM): 1 µM
- pIC50 (OVCAR-3 cells [2]; OVCAR-3, 72 h): 6.05
- pIC50 (OVCAR-3 cells [2]; OVCAR-3, 120 h): 6.31
- concentration at which antiproliferative activity (decrease in the number of cells) was evident (OVCAR-3 cells [2]; OVCAR-3, SRB assay, 0.1–30 µM): 1 µM
- tumor growth inhibition (P388 cells): Significant tumor growth inhibition
- tumor growth inhibition (A549 cells): Significant tumor growth inhibition
- tumor growth inhibition (MV-4-11 cells): Significant tumor growth inhibition
- tumor growth inhibition (Hs294T cells): Significant tumor growth inhibition
- IC50 ([3]; 18Co, 5 days treatment, Neg: negative in the concentration used): Neg
- pIC50 ([3]; 72 h): 4.91
- cytotoxicity (released LDH) (SK-OV-3 cells [4]): strong cytotoxic effect
- tumor growth inhibition (DU145 cells): Significant tumor growth inhibition
- cytotoxicity (released LDH) (OVCAR-3 cells [5]): strongest cytotoxicity
